Reference: ChEMBL document CHEMBL1201862, “PubChem BioAssay data set” (2004)
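The compound was tested at five concentrations on cells cultured in 96-well plates, with a 48-hour exposure period. GI50: concentration for 50% inhibition of growth.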 Activity calls are given as the source filed them. Cut-off read from the data, not from the text of the source: active = GI50 up to about 1.1 µM and inactive = higher.

Legend:
Assay in all cases: NCI tumour cell line growth inhibition, 48 h
[1] = system: K562
[2] = system: SW-620
[3] = system: HOP-92
[4] = system: SNB-19
[5] = system: HCT-15
[6] = system: NCI-H460
[7] = system: SK-MEL-28
[8] = system: A498
[9] = system: UO-31
[10] = system: UACC-257
[11] = system: RXF 631
[12] = system: HCT-116
[13] = system: OVCAR-5
[14] = system: UACC-62
[15] = system: CCRF-CEM
[16] = system: RPMI-8226
[17] = system: HL-60
[18] = system: DMS-273
[19] = system: SR
[20] = system: MOLT-4
[21] = system: A549
[22] = system: OVCAR-4
[23] = system: U-251
[24] = system: SN12C
[25] = system: NCI-H226
[26] = system: Malme-3M
[27] = system: SF-268
[28] = system: CAKI-1
[29] = system: HCC 2998
[30] = system: KM-20L2
[31] = system: HT-29
[32] = system: 786-0
[33] = system: LOX IMVI
[34] = system: ACHN
[35] = system: COLO 205
[36] = system: SK-OV-3
[37] = system: LXFL 529
[38] = system: HOP-18
[39] = system: SK-MEL-5
[40] = system: IGROV-1
[41] = system: NCI-H23
[42] = system: OVCAR-3
[43] = system: DLD-1
[44] = system: HOP-62
[45] = system: M14
[46] = system: M19-MEL
[47] = system: SF-295
[48] = system: DMS-114
[49] = system: SF-539
[50] = system: TK-10
[51] = system: OVCAR-8
[52] = system: NCI-H522
[53] = system: SNB-75
[54] = system: EKVX
[55] = system: SNB-78
[56] = system: SK-MEL-2
[57] = system: KM12
[58] = system: RXF 393

Q: `CC1CN(C(=O)CN2CCC(CCCCN(C)C)CC2)c2ccccc2NC1=O` (stereo unspecified) was tested. Which GI50 [1] did it give?
A: > 100 µM (inactive)

Q: And the GI50 [2]?
A: > 100 µM (inactive)

Q: What about the GI50 [3] of the same compound?
A: > 100 µM (inactive)

Q: And the GI50 [4]?
A: > 100 µM (inactive)

Q: What about the GI50 [5] of the same compound?
A: > 100 µM

Q: And the GI50 [6]?
A: > 100 µM (inactive)

Q: And the GI50 [7]?
A: > 100 µM (inactive)

Q: What about the GI50 [8] of the same compound?
A: > 100 µM (inactive)

Q: What about the GI50 [9] of the same compound?
A: > 100 µM (inactive)

Q: And the GI50 [10]?
A: > 100 µM (inactive)

Q: What about the GI50 [11] of the same compound?
A: > 100 µM (inactive)

Q: And the GI50 [12]?
A: > 100 µM (inactive)

Q: And the GI50 [13]?
A: > 100 µM (inactive)

Q: What about the GI50 [14] of the same compound?
A: > 100 µM (inactive)

Q: What about the GI50 [15] of the same compound?
A: > 100 µM (inactive)

Q: What about the GI50 [16] of the same compound?
A: > 100 µM (inactive)

Q: What about the GI50 [17] of the same compound?
A: > 100 µM (inactive)

Q: And the GI50 [18]?
A: > 100 µM (inactive)

Q: And the GI50 [19]?
A: > 100 µM (inactive)

Q: And the GI50 [20]?
A: > 100 µM (inactive)

Q: What about the GI50 [21] of the same compound?
A: > 100 µM (inactive)

Q: What about the GI50 [22] of the same compound?
A: > 100 µM (inactive)

Q: What about the GI50 [23] of the same compound?
A: > 100 µM (inactive)

Q: And the GI50 [24]?
A: > 100 µM (inactive)

Q: What about the GI50 [25] of the same compound?
A: > 100 µM (inactive)

Q: And the GI50 [26]?
A: > 100 µM (inactive)

Q: What about the GI50 [27] of the same compound?
A: > 100 µM (inactive)

Q: And the GI50 [28]?
A: 90.6 µM (inactive)

Q: And the GI50 [29]?
A: > 100 µM (inactive)

Q: And the GI50 [30]?
A: > 100 µM (inactive)

Q: What about the GI50 [31] of the same compound?
A: > 100 µM (inactive)

Q: What about the GI50 [32] of the same compound?
A: > 100 µM (inactive)

Q: And the GI50 [33]?
A: > 100 µM (inactive)

Q: What about the GI50 [34] of the same compound?
A: > 100 µM (inactive)

Q: And the GI50 [35]?
A: > 100 µM (inactive)

Q: What about the GI50 [36] of the same compound?
A: > 100 µM (inactive)

Q: And the GI50 [37]?
A: > 100 µM (inactive)

Q: What about the GI50 [38] of the same compound?
A: > 100 µM (inactive)

Q: What about the GI50 [39] of the same compound?
A: > 100 µM (inactive)

Q: What about the GI50 [40] of the same compound?
A: > 100 µM (inactive)

Q: What about the GI50 [41] of the same compound?
A: > 100 µM (inactive)

Q: What about the GI50 [42] of the same compound?
A: > 100 µM (inactive)

Q: And the GI50 [43]?
A: > 100 µM (inactive)

Q: And the GI50 [44]?
A: > 100 µM (inactive)

Q: What about the GI50 [45] of the same compound?
A: > 100 µM (inactive)

Q: What about the GI50 [46] of the same compound?
A: > 100 µM (inactive)

Q: And the GI50 [47]?
A: > 100 µM (inactive)

Q: What about the GI50 [48] of the same compound?
A: > 100 µM (inactive)

Q: What does the source list for `NC(=O)c1csc(CCCCCCc2nc(C(N)=O)cs2)n1`?
A: GI50 [1]: > 39.1 µM (inactive); GI50 [2]: > 40.3 µM (inactive); GI50 [49]: > 100 µM (inactive); GI50 [3]: > 100 µM (inactive); GI50 [4]: > 100 µM (inactive); GI50 [5]: > 100 µM; GI50 [6]: > 100 µM (inactive); GI50 [7]: > 100 µM (inactive); GI50 [8]: > 100 µM (inactive); GI50 [50]: > 100 µM (inactive); GI50 [9]: > 100 µM (inactive); GI50 [10]: > 62.5 µM (inactive); GI50 [51]: > 100 µM (inactive); GI50 [11]: > 100 µM (inactive); GI50 [12]: > 56.2 µM (inactive); GI50 [13]: > 100 µM (inactive); GI50 [14]: > 100 µM (inactive); GI50 [15]: > 43.5 µM (inactive); GI50 [16]: > 50.9 µM (inactive); GI50 [17]: > 100 µM (inactive); GI50 [52]: > 100 µM (inactive); GI50 [18]: > 100 µM (inactive); GI50 [19]: > 100 µM (inactive); GI50 [20]: > 100 µM (inactive); GI50 [21]: > 100 µM (inactive); GI50 [53]: > 100 µM (inactive); GI50 [22]: > 57.7 µM (inactive); GI50 [54]: > 100 µM (inactive); GI50 [23]: > 42.5 µM (inactive); GI50 [24]: > 100 µM (inactive); GI50 [25]: > 100 µM (inactive); GI50 [26]: > 100 µM (inactive); GI50 [27]: > 100 µM (inactive); GI50 [28]: > 100 µM (inactive); GI50 [29]: > 100 µM (inactive); GI50 [55]: > 100 µM (inactive); GI50 [30]: > 100 µM (inactive); GI50 [31]: > 40.9 µM (inactive); GI50 [56]: > 100 µM (inactive); GI50 [32]: > 45.3 µM (inactive); GI50 [33]: > 61.7 µM (inactive); GI50 [34]: > 100 µM (inactive); GI50 [35]: > 59.3 µM (inactive); GI50 [36]: > 100 µM (inactive); GI50 [37]: > 100 µM (inactive); GI50 [38]: > 100 µM (inactive); GI50 [57]: > 59.4 µM (inactive); GI50 [58]: > 100 µM (inactive); GI50 [39]: > 100 µM (inactive); GI50 [40]: > 100 µM (inactive); GI50 [41]: > 100 µM (inactive); GI50 [42]: > 100 µM (inactive); GI50 [43]: > 73.6 µM (inactive); GI50 [44]: > 100 µM (inactive); GI50 [45]: > 100 µM (inactive); GI50 [46]: 18.7 µM (inactive); GI50 [47]: > 100 µM (inactive); GI50 [48]: > 71.3 µM (inactive)
